# Results reported in patent US10934310B2, “Inhibitors of Bruton's tyrosine kinase and method of their use” (JANSSEN PHARMACEUTICA NV, priority 2015, dated 2021).
# Biological target: unphosphorylated-BTK kinase domain (UP-BTK), GST-tagged human BTK (389-659aa) (Homo sapiens (Human), UniProt Q06187)
# Assay: BTK Kinase Lanthascreen Binding Assay
# Conditions: compound, 50 nM Tracer 236, 2 nM anti-GST antibody, 60 minutes; pIC50 = negative log of the IC50 in molar
# Description: BTK Kinase Lanthascreen Binding Assay:
# A BTK kinase lanthascreen binding assay monitors compound binding to unphosphorylated-BTK kinase domain (UP-BTK), by competing with a fluorescent labeled tracer. […] Data were analyzed using Xlfit™ version 5.3 from ID Business Solutions (Guildford), Microsoft Excel add-in. pIC50 refers to the negative log of the IC50 in molar.
# Sequence of unphosphorylated-BTK kinase domain (UP-BTK), GST-tagged human BTK (389-659aa) (Q06187 389-659): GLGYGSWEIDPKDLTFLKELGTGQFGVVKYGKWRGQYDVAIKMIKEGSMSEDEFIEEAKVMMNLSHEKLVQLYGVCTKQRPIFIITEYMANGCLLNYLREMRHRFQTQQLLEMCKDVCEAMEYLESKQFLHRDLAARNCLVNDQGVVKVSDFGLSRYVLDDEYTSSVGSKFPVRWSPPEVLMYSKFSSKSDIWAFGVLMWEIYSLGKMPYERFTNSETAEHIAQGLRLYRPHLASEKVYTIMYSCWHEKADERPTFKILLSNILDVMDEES
row,Structure (SMILES),BTK_I_binding pIC50
1,"C=CC(=O)N[C@H]1CCC[C@H]1NC(=O)c1sc2nccc3c2c1NC(=O)N3c1cc(-c2ccccc2)ncn1 [Example 167, N-((1R,2S)-2-Acrylamidocyclopentyl)-4-oxo-5-(6-phenylpyrimidin-4-yl)-4,5-dihydro-3H-1-thia-3,5,8-triazaacenaphthylene-2-carboxamide]",8.34
2,"C=CC(=O)N[C@H]1CCCC[C@H]1NC(=O)c1sc2nccc3c2c1NC(=O)N3c1ccnc(-c2ccccc2)c1 [Example 168, N-((1R,2S)-2-Acrylamidocyclohexyl)-4-oxo-5-(2-phenylpyridin-4-yl)-4,5-dihydro-3H-1-thia-3,5,8-triazaacenaphthylene-2-carboxamide]",8.10
3,"C=CC(=O)N[C@H]1CCC[C@H]1NC(=O)c1sc2nccc3c2c1NC(=O)N3c1ccnc(-c2ccccc2)c1 [Example 169, N-((1R,2S)-2-Acrylamidocyclopentyl)-4-oxo-5-(2-phenylpyridin-4-yl)-4,5-dihydro-3H-1-thia-3,5,8-triazaacenaphthylene-2-carboxamide]",8.26
4,"C=CC(=O)N[C@H]1CCCC[C@H]1NC(=O)c1sc2nccc3c2c1NC(=O)N3c1ccc(Oc2ccccc2)nc1 [Example 172, N-((1R,2S)-2-Acrylamidocyclohexyl)-4-oxo-5-(6-phenoxypyridin-3-yl)-4,5-dihydro-3H-1-thia-3,5,8-triazaacenaphthylene-2-carboxamide]",8.35
5,"C=CC(=O)N[C@@H]1CCC[C@H]1NC(=O)c1sc2nccc3c2c1NC(=O)N3c1ccc(Oc2ccccc2)nc1 [Example 177, N-((1R,2R)-2-Acrylamidocyclopentyl)-4-oxo-5-(6-phenoxypyridin-3-yl)-4,5-dihydro-3H-1-thia-3,5,8-triazaacenaphthylene-2-carboxamide]",7.49
6,"C=CC(=O)N[C@H]1CCC[C@H]1NC(=O)c1sc2nccc3c2c1NC(=O)N3c1ccc(Oc2ccccc2)nc1 [Example 178, N-((1R,2S)-2-Acrylamidocyclopentyl)-4-oxo-5-(6-phenoxypyridin-3-yl)-4,5-dihydro-3H-1-thia-3,5,8-triazaacenaphthylene-2-carboxamide]",8.28
7,"C=CC(=O)N[C@H]1CCC[C@H]1NC(=O)c1sc2nccc3c2c1NC(=O)N3c1ccc(Oc2ccccc2)cn1 [Example 179, N-((1R,2S)-2-Acrylamidocyclopentyl)-4-oxo-5-(5-phenoxypyridin-2-yl)-4,5-dihydro-3H-1-thia-3,5,8-triazaacenaphthylene-2-carboxamide]",8.37
8,"C=CC(=O)N[C@H]1CCCC[C@H]1NC(=O)c1sc2nccc3c2c1NC(=O)N3c1cnc(OC2CCC2)cc1C [Example 183, N-((1R,2S)-2-Acrylamidocyclohexyl)-5-(6-cyclobutoxy-4-methylpyridin-3-yl)-4-oxo-4,5-dihydro-3H-1-thia-3,5,8-triazaacenaphthylene-2-carboxamide]",7.58
9,"C=CC(=O)N[C@@H]1CC[C@@H](NC(=O)c2sc3nccc4c3c2NC(=O)N4c2ccc(Oc3ccccc3)cc2C)C1 [Example 184, N-((1R,3R)-3-Acrylamidocyclopentyl)-5-(2-methyl-4-phenoxyphenyl)-4-oxo-4,5-dihydro-3H-1-thia-3,5,8-triazaacenaphthylene-2-carboxamide]",7.55
10,"C=CC(=O)N[C@@H]1CCC[C@H]1NC(=O)c1sc2nccc3c2c1NC(=O)N3c1ccc(Oc2ccccc2)cn1 [Example 185, N-((1R,2R)-2-Acrylamidocyclopentyl)-4-oxo-5-(5-phenoxypyridin-2-yl)-4,5-dihydro-3H-1-thia-3,5,8-triazaacenaphthylene-2-carboxamide]",7.56
11,"C=CC(=O)N[C@H]1CCCC[C@H]1NC(=O)c1sc2nccc3c2c1NC(=O)N3c1ccc(OC2CCC2)nc1C [Example 187, N-((1R,2S)-2-Acrylamidocyclohexyl)-5-(6-cyclobutoxy-2-methylpyridin-3-yl)-4-oxo-4,5-dihydro-3H-1-thia-3,5,8-triazaacenaphthylene-2-carboxamide]",7.30
12,"C=CC(=O)N[C@H]1CCC[C@H]1NC(=O)c1sc2nccc3c2c1NC(=O)N3c1cc(-c2ccccc2)ccn1 [Example 189, N-((1R,2S)-2-Acrylamidocyclopentyl)-4-oxo-5-(4-phenylpyridin-2-yl)-4,5-dihydro-3H-1-thia-3,5,8-triazaacenaphthylene-2-carboxamide]",8.23
13,"C=CC(=O)N[C@@H]1CC[C@H](NC(=O)c2sc3nccc4c3c2NC(=O)N4c2ccc(Oc3ccccc3)c(Cl)c2)C1 [Example 191, N-((1S,3R)-3-Acrylamidocyclopentyl)-5-(3-chloro-4-phenoxyphenyl)-4-oxo-4,5-dihydro-3H-1-thia-3,5,8-triazaacenaphthylene-2-carboxamide]",7.95
14,"C=CC(=O)N[C@H]1CCC[C@H]1NC(=O)c1sc2nccc3c2c1NC(=O)N3c1cncc(-c2ccccc2)c1 [Example 192, N-((1R,2S)-2-Acrylamidocyclopentyl)-4-oxo-5-(5-phenylpyridin-3-yl)-4,5-dihydro-3H-1-thia-3,5,8-triazaacenaphthylene-2-carboxamide]",7.92
15,"C=CC(=O)N[C@H]1CCC[C@H]1NC(=O)c1sc2nccc3c2c1NC(=O)N3c1cccc(-c2ccccc2)c1 [Example 193, 5-([1,1′-Biphenyl]-3-yl)-N-((1R,2S)-2-acrylamidocyclopentyl)-4-oxo-4,5-dihydro-3H-1-thia-3,5,8-triazaacenaphthylene-2-carboxamide]",8.09
16,"C=CC(=O)N[C@H]1CCC[C@H]1NC(=O)c1sc2nccc3c2c1NC(=O)N3c1cccc(-c2ccccn2)c1 [Example 194, N-((1R,2S)-2-Acrylamidocyclopentyl)-4-oxo-5-(3-(pyridin-2-yl)phenyl)-4,5-dihydro-3H-1-thia-3,5,8-triazaacenaphthylene-2-carboxamide]",7.89
17,"C=CC(=O)N[C@@H]1CC[C@H](NC(=O)c2sc3nccc4c3c2NC(=O)N4c2ccnc(-c3ccccc3)c2)C1 [Example 198, N-((1S,3R)-3-Acrylamidocyclopentyl)-4-oxo-5-(2-phenylpyridin-4-yl)-4,5-dihydro-3H-1-thia-3,5,8-triazaacenaphthylene-2-carboxamide]",7.98
18,"C=CC(=O)N[C@H]1CCC[C@H]1NC(=O)c1sc2nccc3c2c1NC(=O)N3c1ccc(Oc2cccnc2)cc1C [Example 199, N-((1R,2S)-2-Acrylamidocyclopentyl)-5-(2-methyl-4-(pyridin-3-yloxy)phenyl)-4-oxo-4,5-dihydro-3H-1-thia-3,5,8-triazaacenaphthylene-2-carboxamide]",8.13
19,"C=CC(=O)N[C@H]1CCC[C@H]1NC(=O)c1sc2nccc3c2c1NC(=O)N3c1cnc(Oc2ccccc2)cn1 [Example 201, N-((1R,2S)-2-Acrylamidocyclopentyl)-4-oxo-5-(5-phenoxypyrazin-2-yl)-4,5-dihydro-3H-1-thia-3,5,8-triazaacenaphthylene-2-carboxamide]",8.32
20,"C=CC(=O)N[C@H]1CCC[C@H]1NC(=O)c1sc2nccc3c2c1NC(=O)N3c1cccc(-c2cccnc2)c1 [Example 202, N-((1R,2S)-2-Acrylamidocyclopentyl)-4-oxo-5-(3-(pyridin-3-yl)phenyl)-4,5-dihydro-3H-1-thia-3,5,8-triazaacenaphthylene-2-carboxamide]",7.90
21,"C=CC(=O)N[C@H]1CCC[C@H]1NC(=O)c1sc2nccc3c2c1NC(=O)N3c1cnnc(-c2ccccc2)c1 [Example 203, N-((1R,2S)-2-Acrylamidocyclopentyl)-4-oxo-5-(6-phenylpyridazin-4-yl)-4,5-dihydro-3H-1-thia-3,5,8-triazaacenaphthylene-2-carboxamide]",8.06
22,"C=CC(=O)N[C@H]1CCC[C@H]1NC(=O)c1sc2nccc3c2c1NC(=O)N3c1ccc(OC(C)C)cc1 [Example 205, N-((1R,2S)-2-Acrylamidocyclopentyl)-5-(4-isopropoxyphenyl)-4-oxo-4,5-dihydro-3H-1-thia-3,5,8-triazaacenaphthylene-2-carboxamide]",7.62
23,"C=CC(=O)N[C@H]1CCC[C@H]1NC(=O)c1sc2nccc3c2c1NC(=O)N3c1ccc(OC2CCOCC2)cc1C [Example 206, N-((1R,2S)-2-Acrylamidocyclopentyl)-5-(2-methyl-4-((tetrahydro-2H-pyran-4-yl)oxy)phenyl)-4-oxo-4,5-dihydro-3H-1-thia-3,5,8-triazaacenaphthylene-2-carboxamide]",7.33
24,"C=CC(=O)N[C@H]1CCC[C@H]1NC(=O)c1sc2nccc3c2c1NC(=O)N3c1ccnc(C(C)C)c1 [Example 207, N-((1R,2S)-2-Acrylamidocyclopentyl)-5-(2-isopropylpyridin-4-yl)-4-oxo-4,5-dihydro-3H-1-thia-3,5,8-triazaacenaphthylene-2-carboxamide]",7.53
25,"C=CC(=O)N[C@H]1CCCC[C@H]1NC(=O)c1sc2nccc3c2c1NC(=O)N3c1ccc(OC(C)C)nc1C [Example 211, N-((1R,2S)-2-Acrylamidocyclohexyl)-5-(6-isopropoxy-2-methylpyridin-3-yl)-4-oxo-4,5-dihydro-3H-1-thia-3,5,8-triazaacenaphthylene-2-carboxamide]",6.92
26,"C=CC(=O)N[C@@H]1CC[C@@H](NC(=O)c2sc3nccc4c3c2NC(=O)N4c2ccnc(-c3ccccc3)c2)C1 [Example 212, N-((1R,3R)-3-Acrylamidocyclopentyl)-4-oxo-5-(2-phenylpyridin-4-yl)-4,5-dihydro-3H-1-thia-3,5,8-triazaacenaphthylene-2-carboxamide]",7.49

# Same assay, conditions: read-out: BTK_I_binding pIC50 (converted)
row,Structure (SMILES),IC50 [µM]
1,"C=CC(=O)N[C@H]1CC[C@@H](NC(=O)c2sc3nccc4c3c2NC(=O)N4c2ccnc(-c3ccccc3)c2)C1 [Example 208, N-((1R,3S)-3-Acrylamidocyclopentyl)-4-oxo-5-(2-phenylpyridin-4-yl)-4,5-dihydro-3H-1-thia-3,5,8-triazaacenaphthylene-2-carboxamide]",> 1
